Test results as given in US20200163984A1, “USE OF ISOVALERYL SPIRAMYCIN I, II AND/OR III IN MANUFACTURING MEDICAMENT FOR TREATING AND/OR PREVENTING TUMOR, AND MEDICAMENT” (SHENYANG FUYANG PHARMACEUTICAL TECHNOLOGY CO., LTD., priority 2017, published 2020).
Converted amounts (≈) assume the structure as drawn.

Legend:
[1] = system: human promyelocytic leukemia cell HL-60; settings: HL-60, MTT, 48 h
Experimental: (§1) The purpose of the assay is to evaluate the in vitro cell proliferation inhibition or cytotoxic activity of a tested sample.
(§2) U937 and HL-60 were suspension cells, and cells in a logarithmic growth phase were selected and prepared into a 2×10^5/ml cell suspension by a RPMI 1640 culture medium containing 10% fetal bovine serum. And the cell suspension was inoculated in a 96-well culture plate, and each well was 50 μL and the 96-well culture plate was cultured at 37° C. and 5% CO2 for 24 hours. 50 μL of a culture medium containing different concentrations of the tested sample isovaleryl spiramycin I, isovaleryl spiramycin II, or isovaleryl spiramycin III was added in the experimental group, while a culture medium containing the same volume of solvent was added into the control group. Each group was set up with 3 parallel wells that were cultured at 37° C. and 5% CO2 for 48 h. And 10 μL of freshly prepared medium containing 5 mg/ml MTT was added into each well for continuous incubation for 4 hours at 37° C. The crystals were dissolved in 100 μL of a triple solution (SDS 10 g, 10 M HCl 0.1 mL, isobutanol 5 mL, diluted with distilled water to 100 mL), and incubated at 37° C. for 12 hours. The optical density value was measured at 492 nm with a microplate reader.
(§3) The inhibition rate of the medicament on tumor cell growth is calculated according to the following formula:
(§4) Tumor cell growth inhibition rate (%)=[A492 (negative control)−A492 (dosing group)]/A492 (negative control)×100%
(§5) And the half-inhibitory concentration (IC50) of the sample is determined therefrom.

[2] = system: human tissue lymphoma cell U937; settings: U937, MTT, 48 h
Experimental: as §1, §2, §3, §4, §5

[3] = system: transplanted tumor of human prostate cancer cell PC3; assay: PC3 transplanted tumor in nude mice
Experimental: Then cell concentration was adjusted to 1×10^7/ml with matrigel, then each nude mouse was inoculated subcutaneously with 0.2 ml of cells at its right armpit and recorded as the first day of inoculation. When the tumor grows to be greater than or equal to 100 mm^3, the mice were randomly divided into 11 groups with 6 mice in each group: a model group, a cyclophosphamide group, isovaleryl spiramycin I groups with doses of 25, 50 and 100 mg/kg, isovaleryl spiramycin II groups with doses of 25, 50 and 100 mg/kg, and isovaleryl spiramycin III groups with doses of 25, 50 and 100 mg/kg. Each group was continuously administered intragastrically for 30 days with a dose of 20 ml/kg. The mice were sacrificed the next day after drug withdrawal and the indicators were tested. The long diameter and short diameter of the tumor, and the body weight of each mouse were recorded every 3 days from drug administration to nude mouse sacrifice.
The body weight of the nude mice and the long diameter (a) and short diameter (b) of the transplanted tumor were measured every 3 days, and the tumor volume (v), relative tumor volume (RTV) and relative tumor proliferation rate (T/C) are calculated respectively according to the following formulas, wherein V=a×b^2/2; RTV=V/V0 (V0 is the tumor volume before administration, V is the tumor volume before sacrifice), and T/C (%)=treatment group RTV/model control group RTV×100%.
Each mouse was weighed and sacrificed. After the tumor was completely stripped off from the body of the mouse, the non-tumor tissues such as blood stains and fat were removed to weigh the tumor and calculate the tumor growth inhibition rate. The average tumor weight of each group of mice is used as an indicator of efficacy. Tumor growth inhibition rate (%)=(1−the average tumor weight of the treatment group/the average tumor weight of the model group)×100%.

[4] = system: transplanted tumor of mouse H22 liver cancer; assay: Transplanted tumor of mouse H22 liver cancer; settings: for Tumor Volume (mm3) (d30): d 30; for Body Weight (g) (d1) / Body Weight (g) (d 7): mouse, in vivo
Experimental: The H22 cell strains cryopreserved in liquid nitrogen were resuscitated in Kunming mice. After 3 generations, the ascites of Kunming mice were taken and placed in a 50 ml centrifuge tube in which 10 ml of 0.9% normal saline was added, and then centrifuging was performed at 1000 rpm for 5 min at room temperature, and the obtained supernatant was removed. Then 10 ml of 0.9% normal saline was added to the tube to blow and mix well, and then the mixture was diluted to 5×10^6 live cells/ml with normal saline after counting. The tube was stored in ice water, and 75% ethanol was used to disinfect the skin under the right armpits of the mice. Each Kunming mouse was soon inoculated subcutaneously with 0.2 ml of the cells at the armpit of the right forelimb.
In the H22 liver cancer model, the mice inoculated with the tumor were randomly divided into groups with 10 mice in each group on the next day of inoculation. The groups included: a model control group, a positive drug cyclophosphamide control group (CTX, 26 mg/kg), isovaleryl spiramycin I groups with doses of 13, 26 and 52 mg/kg; isovaleryl spiramycin II groups with doses of 13, 26 and 52 mg/kg; isovaleryl spiramycin III groups with doses of 13, 26 and 52 mg/kg. Each group was continuously administered intragastrically for 7 days with a dose of 20 ml/kg.
The tumor-bearing mice were weighed and sacrificed the next day after the last administration. The subcutaneous tumors were dissected and weighed. The average tumor weight of each group is calculated, and the tumor inhibition rate is calculated.
Tumor inhibition rate=(1−T/C)×100%
T: average tumor weight of the drug-administered group; C: average tumor weight of the blank control group.

[5] = PC3, 25 mg/kg (low dose) i.g. 30 days
[6] = PC3, 50 mg/kg (medium dose) i.g. 30 days
[7] = PC3, 100 mg/kg (high dose) i.g. 30 days

`CCC(=O)O[C@@H]1CC(=O)O[C@H](C)C/C=C/C=C/[C@H](O[C@H]2CC[C@H](N(C)C)[C@@H](C)O2)[C@H](C)C[C@H](CC=O)[C@H](O[C@@H]2O[C@H](C)[C@@H](O[C@H]3C[C@@](C)(O)[C@@H](OC(=O)CC(C)C)[C@H](C)O3)[C@H](N(C)C)[C@H]2O)[C@H]1OC` [Isovaleryl spiramycin III, isovaleryl spiramycin III] was tested, and the IC50 [1] was 21.38 ± 1.75 µg/mL (≈ 21.7 µM), the IC50 [2] was 15.59 ± 0.08 µg/mL (≈ 15.9 µM) and the “Inhibition Rate (tumor growth inhibition rate)” value [3, 5] was 25.43%. The “Relative Tumor Proliferation Rate (T/C)” value [3, 5] was 75.75%, the “Relative Tumor Volume (RTV)” value [3, 5] was 14.82 ± 7.55 and the “Tumor Volume (d 1)” value [3, 5] was 146.91 ± 6.70 mm3. For the same compound, the “Tumor Volume (d 30)” value [3, 5] was 1914.85 ± 729.54 mm3, the “Tumor Weight” value [3, 5] was 1.40 ± 0.54 g and the “Inhibition Rate (tumor growth inhibition rate)” value ([3]; PC3, 25 mg/kg (low dose) i.g. 30 days, listed as isovaleryl spiramycin III) was 25.44%. For the same compound, the “Inhibition Rate (tumor growth inhibition rate)” value [3, 6] was 40.16%, the “Relative Tumor Proliferation Rate (T/C)” value [3, 6] was 55.01% and the “Relative Tumor Volume (RTV)” value [3, 6] was 10.76 ± 2.24. For the same compound, the “Tumor Volume (d 1)” value [3, 6] was 187.01 ± 50.28 mm3, the “Tumor Volume (d 30)” value [3, 6] was 1935.79 ± 228.06 mm3 and the “Tumor Weight” value [3, 6] was 1.12 ± 0.45 g. For the same compound, the “Relative Tumor Proliferation Rate (T/C)” value ([3]; PC3, 50 mg/kg (medium dose) i.g. 30 days, listed as isovaleryl spiramycin III) was 55.02%, the “Inhibition Rate (tumor growth inhibition rate)” value [3, 7] was 60.37% and the “Relative Tumor Proliferation Rate (T/C)” value [3, 7] was 34.57%. For the same compound, the “Relative Tumor Volume (RTV)” value [3, 7] was 6.76 ± 1.61, the “Tumor Volume (d 1)” value [3, 7] was 155.11 ± 7.98 mm3 and the “Tumor Volume (d 30)” value [3, 7] was 1051.03 ± 272.23 mm3. For the same compound, the “Tumor Weight” value [3, 7] was 0.75 ± 0.25 g, the “tumor volume and relative tumor volume compared with the model group” value ([3]; PC3, low, medium and high doses, P<0.05) was “significantly lower” and the “mouse weight compared with the model group” value ([3]; mouse, in vivo) was “no significant changes”. The “growth of H22 liver cancer in mice” value ([4]; 13, 26 and 52 mg/kg i.g. 7 days) was “significantly inhibit”, the “Relative Tumor Proliferation Rate (T/C)” value ([4]; dose 12.5 mg/kg) was 69.68 and the “Relative Tumor Volume (RTV)” value ([4]; dose 12.5 mg/kg) was 6.92 ± 1.88. The “Tumor Volume (mm3) (d 1)” value ([4]; dose 12.5 mg/kg) was 121.58 ± 13.44 mm3, the “Tumor Volume (mm3) (d30)” value ([4]; dose 12.5 mg/kg) was 824.36 ± 143.90 mm3 and the “Inhibition Rate (%)” value ([4]; dose 13 mg/kg) was 33.55%. The “Tumor” value ([4]; dose 13 mg/kg) was 1.01 ± 0.22 g, the “Relative Tumor Proliferation Rate (T/C)” value ([4]; dose 25 mg/kg) was 56.90 and the “Relative Tumor Volume (RTV)” value ([4]; dose 25 mg/kg) was 5.65 ± 1.74. The “Tumor Volume (mm3) (d 1)” value ([4]; dose 25 mg/kg) was 118.16 ± 21.72 mm3, the “Tumor Volume (mm3) (d30)” value ([4]; dose 25 mg/kg) was 650.32 ± 171.23 mm3 and the “Inhibition Rate (%)” value ([4]; dose 26 mg/kg) was 44.08%. For the same compound, the “Tumor” value ([4]; dose 26 mg/kg) was 0.85 ± 0.34 g, the “Relative Tumor Proliferation Rate (T/C)” value ([4]; dose 50 mg/kg) was 43.45 and the “Relative Tumor Volume (RTV)” value ([4]; dose 50 mg/kg) was 4.31 ± 1.65. For the same compound, the “Tumor Volume (mm3) (d 1)” value ([4]; dose 50 mg/kg) was 122.15 ± 49.44 mm3, the “Tumor Volume (mm3) (d30)” value ([4]; dose 50 mg/kg) was 468.19 ± 110.04 mm3 and the “Inhibition Rate (%)” value ([4]; dose 52 mg/kg) was 51.97%. For the same compound, the “Tumor” value ([4]; dose 52 mg/kg) was 0.73 ± 0.45 g, the “Body Weight (g) (d1)” value ([4]; 13 mg/kg) was 23.67 ± 3.73 g and the “Body Weight (g) (d 7)” value ([4]; 13 mg/kg) was 26.33 ± 1.43 g. For the same compound, the “Body Weight (g) (d1)” value ([4]; 26 mg/kg) was 24.13 ± 1.46 g, the “Body Weight (g) (d 7)” value ([4]; 26 mg/kg) was 27.47 ± 1.21 g and the “Body Weight (g) (d1)” value ([4]; 52 mg/kg) was 24.32 ± 1.12 g. For the same compound, the “Body Weight (g) (d 7)” value ([4]; 52 mg/kg) was 27.35 ± 0.80 g.
